Measured values taken from patent US9248117B2, “Substituted N,N-dihaloamines as antimicrobials” (priority 2010, dated 2016).
In brackets after ≈: the same amount, converted by molar mass.

Tests used:
L929 cells = experiment: CT50 cytotoxicity in L929 cells; settings: pH 7 phosphate; Table 3
S. aureus 29213 = experiment: MBC/MFC against S. aureus 29213; type: cell-based; settings: Staphylococcus aureus, Table 3
E. coli 25922 = experiment: MBC/MFC against E. coli 25922; type: cell-based; settings: Escherichia coli, Table 3
C. albicans 10231 = experiment: MBC/MFC against C. albicans 10231; type: cell-based; settings: Candida albicans, Table 3

Row | Structure (SMILES) | CT50 L929 cells (L929 cells) [mM] | MBC (S. aureus 29213; pH 4 acetate) [µg/mL] | MBC (S. aureus 29213; pH 7 phosphate) [µg/mL] | MBC (E. coli 25922; pH 4 acetate) [µg/mL] | MBC (E. coli 25922; pH 7 phosphate) [µg/mL] | MFC (C. albicans 10231; pH 4 acetate) [µg/mL] | MFC (C. albicans 10231; pH 7 phosphate) [µg/mL]
1 | COCCOCCOCCS(=O)(=O)CC(C)(C)N(Cl)Cl [Compound 38-01, dichloro[1-({2-[2-(2-methoxyethoxy)ethoxy]ethane}sulfonyl)-2-methylpropan-2-yl]amine] | 0.06 | 2 (≈ 5.68 µM) | 256 (≈ 727 µM) | 2 (≈ 5.68 µM) | 256 (≈ 727 µM) | 32 (≈ 90.8 µM) | > 512
2 | CC(C)(CCS(=O)(=O)CCO)N(Cl)Cl [Compound 38-25, 2-(3-(Dichloroamino)-3-methylbutylsulfonyl)ethanol] | – | 1 (≈ 3.79 µM) | 16 (≈ 60.6 µM) | 0.5 (≈ 1.89 µM) | 8 (≈ 30.3 µM) | 16 (≈ 60.6 µM) | 512 (≈ 1940 µM)
3 | CC(C)(CCS(=O)(=O)CC(O)CO)N(Cl)Cl (centres unmarked) [Compound 38-27, 3-(3-(Dichloroamino)-3-methylbutylsulfonyl)propane-1,2-diol] | 0.13 | 2 (≈ 6.8 µM) | 4 (≈ 13.6 µM) | 2 (≈ 6.8 µM) | 16 (≈ 54.4 µM) | > 256 | > 1020
4 | CC(C)(CCS(=O)(=O)CC(O)C(O)CO)N(Cl)Cl (centres unmarked) [Compound 38-29, 4-(3-(Dichloroamino)-3-methylbutylsulfonyl)butane-1,2,3-triol] | – | 1 (≈ 3.08 µM) | 32 (≈ 98.7 µM) | 2 (≈ 6.17 µM) | 128 (≈ 395 µM) | 256 (≈ 790 µM) | > 1020
5 | COCC[N+](C)(C)CCC(C)(C)N(Cl)Cl.[Cl-] [Compound 38-43, 3-(dichloroamino)-N-(2-methoxyethyl)-N,N,3-trimethylbutan-1-aminium chloride] | 1.2 | 1 | 512 | 2 | 1020 | 32 | > 2050
6 | COCCOCCOCC[N+](C)(C)CCC(C)(C)N(Cl)Cl [Compound 38-45, 3-(dichloroamino)-N-(2-(2-(2-methoxyethoxy)ethoxy)ethyl)-N,N,3-trimethylbutan-1-aminium 4-methylbenzenesulfonate] | 3.2 | 4 | 1020 | 4 | 1020 | 64 | > 2050
7 | CC(=O)OCC(O)CS(=O)(=O)CCC(C)(C)N(Cl)Cl (centres unmarked) [Compound 38-49, 3-(3-(Dichloroamino)-3-methylbutylsulfonyl)-2-hydroxypropyl acetate] | – | 4 | 32 | 2 | 64 | 16 | > 512
8 | CC(=O)OCC(CS(=O)(=O)CCC(C)(C)N(Cl)Cl)OC(C)=O (centres unmarked) [Compound 38-51, 3-(3-(Dichloroamino)-3-methylbutylsulfonyl)propane-1,2-diyl diacetate] | – | 2 | 128 | 1 | 128 | 16 | 128
9 | CC(C)(CCS(=O)(=O)CCOCCOCCS(=O)(=O)O)N(Cl)Cl [Compound 38-81, 2-(2-(2-(3-(dichloroamino)-3-methylbutylsulfonyl)ethoxy)ethoxy) ethanesulfonic acid] | 2.13 | 4 (≈ 9.61 µM) | 256 (≈ 615 µM) | 2 (≈ 4.8 µM) | 32 (≈ 76.9 µM) | 128 (≈ 307 µM) | > 2050
10 | CC(C)(CCS(=O)(=O)CCOCCS(=O)(=O)O)N(Cl)Cl [Compound 38-83, 2-(2-(3-(dichloroamino)-3-methylbutylsulfonyl)ethoxy)ethanesulfonic acid] | 1.74 | 1 (≈ 2.69 µM) | 256 (≈ 688 µM) | 2 (≈ 5.37 µM) | 128 (≈ 344 µM) | 128 (≈ 344 µM) | > 1020
11 | CC(C)(CCS(=O)(=O)CCOCCOCCO)N(Cl)Cl [Compound 38-85, 2-(2-(2-(3-(Dichloroamino)-3-methylbutylsulfonyl)ethoxy)ethoxy)ethanol] | 0.04 | 4 (≈ 11.4 µM) | 64 (≈ 182 µM) | 4 (≈ 11.4 µM) | 64 (≈ 182 µM) | 32 (≈ 90.8 µM) | > 1020
12 | CC(=O)OCCOCCOCCS(=O)(=O)CCC(C)(C)N(Cl)Cl [Compound 38-87, 2-(2-(2-(3-(Dichloroamino)-3-methylbutylsulfonyl)ethoxy)ethoxy)ethyl acetate] | – | 4 | 128 | 4 | 128 | 32 | 512
13 | CCOCCOCCOCCS(=O)(=O)CCC(C)(C)N(Cl)Cl [Compound 38-89, N,N-dichloro-4-(2-(2-(2-ethoxyethoxy)ethoxy)ethylsulfonyl)-2-methylbutan-2-amine] | 0.06 | 8 (≈ 21 µM) | 128 (≈ 337 µM) | 8 (≈ 21 µM) | 256 (≈ 673 µM) | 4 (≈ 10.5 µM) | 512 (≈ 1350 µM)
14 | CC(C)(C)OCCOCCOCCS(=O)(=O)CCC(C)(C)N(Cl)Cl [Compound 38-91, N,N-dichloro-4-(2-(2-(2-tert-butoxyethoxy)ethoxy)ethylsulfonyl)-2-methylbutan-2-amine] | – | 4 (≈ 9.79 µM) | 128 (≈ 313 µM) | 8 (≈ 19.6 µM) | > 256 | 16 (≈ 39.2 µM) | 128 (≈ 313 µM)
15 | CCCCOCC[N+](C)(C)CCC(C)(C)N(Cl)Cl.[Cl-] [Compound 38-133, N-(2-butoxyethyl)-3-(dichloroamino)-N,N,3-trimethylbutan-1-aminium chloride] | 0.26 | 8 | 128 | 8 | 128 | 64 | 1020
16 | CCCCCCOCC[N+](C)(C)CCC(C)(C)N(Cl)Cl.Cc1ccc(S(=O)(=O)[O-])cc1 [Compound 38-135, 3-(dichloroamino)-N-(2-(hexyloxy)ethyl)-N,N,3-trimethylbutan-1-aminium 4-methylbenzenesulfonate] | 0.08 | 2 | 512 | 8 | 256 | 32 | > 1020
17 | COCCC[N+](C)(C)CCC(C)(C)N(Cl)Cl [Compound 38-137, 3-(dichloroamino)-N-(3-methoxypropyl)-N,N,3-trimethylbutan-1-aminium chloride] | 1.62 | 4 | > 1020 | 8 | 512 | 32 | > 1020
18 | CO[C@H]1O[C@H](CS(=O)(=O)CCC(C)(C)N(Cl)Cl)[C@@H](O)[C@H](O)[C@H]1O [Compound 38-141, (2S,3S,4S,5R,6S)-2-(((3-(dichloroamino)-3-methylbutyl)sulfonyl)methyl)-6-methoxytetrahydro-2H-pyran-3,4,5-triol] | – | 8 (≈ 20.2 µM) | 256 (≈ 646 µM) | 8 (≈ 20.2 µM) | 512 (≈ 1290 µM) | 16 (≈ 40.4 µM) | > 1020
19 | CC(C)(CCS(=O)(=O)C(CO)C(O)CO)N(Cl)Cl (centres unmarked) [Compound 38-145, 3-(3-(Dichloroamino)-3-methylbutylsulfonyl)butane-1,2,4-triol] | – | 2 (≈ 6.17 µM) | 16 (≈ 49.3 µM) | 2 (≈ 6.17 µM) | 64 (≈ 197 µM) | 64 (≈ 197 µM) | 1020 (≈ 3160 µM)
